Experimental data published in ChEMBL document CHEMBL5614415, “Recent advances and challenges of revolutionizing drug-resistant tuberculosis treatment” (Eur J Med Chem, 2024).
≈ marks a conversion by molar mass, not a printed value.

Experiments:
[1] = system: Mycobacterium tuberculosis; test: Antimicrobial activity against Mycobacterium tuberculosis H37Rv ATCC 27294 assessed as inhibition of bacterial growth incubated for […] by broth dilution method; type: functional; settings: time lower 18 hrs
[2] = system: Mycobacterium tuberculosis; test: Antimycobacterial activity against Mycobacterium tuberculosis H37Rv assessed as reduction in bacterial growth after 7 days by resazurin based fluorescence assay; type: functional; settings: 168 h, time 7 day
[3] = system: Mycobacterium tuberculosis; test: Antibacterial activity against Mycobacterium tuberculosis H37Rv; type: functional
[4] = system: Mycobacterium tuberculosis; test: Antibacterial activity against Mycobacterium tuberculosis H37Rv assessed as reduction in bacterial growth measured after 7 days by broth micro-dilution method; type: functional; settings: 168 h, time 7 day
[5] = system: Mycobacterium tuberculosis; test: Antimycobacterial activity against Mycobacterium tuberculosis H37Rv ATCC 27294 assessed as reduction in bacterial cell growth by resazurin reduction method; type: functional
[6] = system: Mycobacterium tuberculosis; test: Antibacterial activity against Mycobacterium tuberculosis ATCC 35801 assessed as inhibition of bacterial growth incubated for 7 days by resazurin microtiter assay; type: functional; settings: ATCC 35801, 168 h, time 7 day
[7] = system: Mycobacterium tuberculosis; test: Antibacterial activity against Mycobacterium tuberculosis H37Rv assessed as bacterial growth inhibition by CLSI broth microdilution method; type: functional
[8] = system: Mycobacterium tuberculosis; test: Antimycobacterial activity against Mycobacterium tuberculosis […] assessed as reduction in bacterial growth; type: functional
[9] = target: Cytochrome P450 2C9 (Homo sapiens, UniProt P11712); test: Inhibition of CYP2C9 (unknown origin); type: ADME
Sequence of Cytochrome P450 2C9 (P11712 whole entry): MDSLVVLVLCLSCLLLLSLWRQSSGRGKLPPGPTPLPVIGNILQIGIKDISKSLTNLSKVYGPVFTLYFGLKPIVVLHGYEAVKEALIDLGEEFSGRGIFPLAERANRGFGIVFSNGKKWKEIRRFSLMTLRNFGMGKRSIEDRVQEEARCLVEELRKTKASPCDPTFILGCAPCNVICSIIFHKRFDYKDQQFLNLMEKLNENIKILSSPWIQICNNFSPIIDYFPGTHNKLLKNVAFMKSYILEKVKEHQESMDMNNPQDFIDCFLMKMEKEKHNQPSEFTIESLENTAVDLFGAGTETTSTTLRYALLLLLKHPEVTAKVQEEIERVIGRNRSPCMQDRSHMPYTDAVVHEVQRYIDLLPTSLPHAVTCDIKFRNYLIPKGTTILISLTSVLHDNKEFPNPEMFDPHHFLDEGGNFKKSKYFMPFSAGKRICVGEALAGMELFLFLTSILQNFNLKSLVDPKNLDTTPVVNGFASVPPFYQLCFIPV

[10] = system: Mycobacterium tuberculosis; test: Antibacterial activity against wild type Mycobacterium tuberculosis H37Rv infected in BALB/c mouse assessed as log reduction in colony forming units at 20 mg/kg; type: functional
[11] = system: Mycobacterium tuberculosis; test: Antimycobacterial activity against Mycobacterium tuberculosis H37Rv assessed as reduction in bacterial cell growth by resazurin reduction method; type: functional
[12] = system: Mycobacterium tuberculosis; test: Antitubercular activity against Mycobacterium tuberculosis H37Ra assessed as inhibition of bacterial growth incubated for 7 days by Microdilution Alamar Blue assay; type: functional; settings: 168 h, time 7 day
[13] = system: Salmonella typhimurium; test: Antibacterial activity against Salmonella typhimurium DT104 assessed as inhibition of bacterial growth incubated for 18 hrs by CLSI protocol based microbroth dilution method; type: functional, Salmonella enterica subsp. enterica serovar Typhimurium; settings: Salmonella enterica
[14] = system: Mycobacterium tuberculosis; test: Antimycobacterial activity against Mycobacterium tuberculosis; type: functional
[15] = system: Mycobacterium tuberculosis; test: Antimycobacterial activity against Mycobacterium tuberculosis assessed as reduction in bacterial growth; type: functional
[16] = system: Mycobacterium avium; test: Antimycobacterial activity against Mycobacterium avium assessed as bacterial growth inhibtion; type: functional
[17] = system: Staphylococcus aureus; test: Antibacterial activity against Staphylococcus aureus assessed as reduction in microbial growth by CLSI protocol based broth micro-dilution method; type: functional
[18] = system: Mycobacterium tuberculosis; test: Antimycobacterial activity against Mycobacterium tuberculosis H37Rv ATCC 27294 assessed as reduction in bacterial cell growth; type: functional
[19] = system: Mycobacterium tuberculosis; test: Antimycobacterial activity against Mycobacterium tuberculosis assessed as bacterial growth inhibition; type: functional
[20] = system: Mycolicibacterium smegmatis; test: Antimicrobial activity against Mycobacterium smegmatis ATCC 700084 assessed as bacterial growth inhibition; type: functional
[21] = system: Mycolicibacterium smegmatis; test: Antimycobacterial activity against Mycobacterium smegmatis mc2 155 assessed as reduction in bacterial cell growth by resazurin reduction method; type: functional

For `C(=C\c1cc2ccc(C3=NCCN3)cc2[nH]1)/c1cc2ccc(C3=NCCN3)cc2[nH]1`, the MIC50 [1] was 0.03 µg/mL (≈ 0.076 µM).

For `c1cc2cc(-c3ccc(-c4cc5ccc(C6=NCCN6)cc5[nH]4)cc3)[nH]c2cc1C1=NCCN1`, the MIC50 [1] was 0.04 µg/mL (≈ 0.09 µM).

`c1cc2cc(-c3ccc4cc(C5=NCCN5)[nH]c4c3)[nH]c2cc1C1=NCCN1` showed an MIC50 [1] of 0.08 µg/mL (≈ 0.217 µM).

With `c1cc2cc(-c3ccc4cc(-c5ccc6oc(C7=NCCN7)cc6c5)[nH]c4c3)[nH]c2cc1C1=NCCN1` the MIC50 [1] was 0.02 µg/mL (≈ 0.0413 µM).

`O=C(Nc1nc(-c2ccccn2)cs1)c1ccc(Cl)s1` was tested, and the MIC50 [2] was 0.25 µg/mL (≈ 0.777 µM).

With `O=[N+]([O-])c1cn2c(n1)OC[C@@H](OCc1ccc(-c3ccc(C(F)(F)F)cc3)nc1)C2` the MIC50 [3] was < 0.015 µg/mL.

`c1ccc(CC2CCN(CC3CCN(CC45CC6CC(CC(C6)C4)C5)CC3)CC2)cc1` showed an MIC90 [4] of 7 µg/mL (≈ 16.6 µM).

Work on `CCN(CC)CCOc1c(C(=O)OC)c2c3c(oc2c2ccccc12)C(=O)c1ccccc1C3=O` yielded an MIC50 [5] of 0.19 µg/mL (≈ 0.403 µM).

In the case of `OC1CCN(C2CCN(CC34CC5CC(CC(C5)C3)C4)CC2)CC1`, the MIC90 [4] is reported as > 10 µg/mL.

`CCNC(=O)Nc1nc2cc(-c3cnc(C(C)(C)O)nc3)c(F)c([C@H]3CCCO3)c2[nH]1` was tested, and the MIC50 [6] was 0.03 µg/mL (≈ 0.07 µM).

`CC1(C)CCC(NC(=O)c2cc3c(Cl)cc(Cl)cc3[nH]2)CC1` gave an MIC50 [7] of 0.005 µg/mL (≈ 0.0147 µM).

`CCCCc1ccc(NC(=O)C2=CCN(C)[C@@H]([C@H](O[C@@H]3O[C@H](CN)[C@@H](O)[C@H]3O)[C@H]3O[C@@H](n4ccc(=O)[nH]c4=O)[C@H](O)[C@@H]3O)C(=O)N2C)cc1` gave an MIC50 [8] of 3.13 µg/mL (≈ 4.54 µM).

In the case of `CCOC(=O)NC(=O)c1ccsc1NC(=O)c1ccn2cnnc2c1`, the IC50 [9] is reported as > 10000 nM.

For `CCOc1cc([C@](O)(CCN(C)C)[C@@H](c2cc3cc(Br)ccc3nc2OC)c2cccc(OC)c2F)cc(OC)n1`, the “log(activity)” value [10] was 1.5.

Work on `CCOC(=O)NC(=O)c1cc(F)sc1NC(=O)c1nc2ccccc2s1` yielded an IC50 [9] of 150 nM.

`CC(=O)N1/C(=C/c2ccc(Oc3ccc(Cl)cc3)cc2)C(=O)c2cc(Cl)ccc21` gave an MIC99 [11] of 0.13 µg/mL (≈ 0.306 µM).

Work on `CC(=O)N1/C(=C/c2ccc(Oc3ccc(Cl)cc3)cc2)C(=O)c2ccccc21` yielded an MIC99 [11] of 0.18 µg/mL (≈ 0.462 µM).

`CC(=O)N1/C(=C/c2ccc(-c3ccccc3)cc2)C(=O)c2ccccc21` gave an MIC99 [11] of 0.38 µg/mL (≈ 1.12 µM).

With `CC(=O)N1/C(=C/c2ccc(-c3ccsc3)cc2)C(=O)c2ccccc21` the MIC99 [11] was 0.16 µg/mL (≈ 0.463 µM).

For `CC(=O)N1/C(=C/c2cccc(-c3ccccc3)c2)C(=O)c2ccccc21`, the MIC99 [11] was 0.69 µg/mL (≈ 2.03 µM).

Work on `CC(=O)N1/C(=C/c2ccc(Br)cc2)C(=O)c2ccccc21` yielded an MIC99 [11] of 0.42 µg/mL (≈ 1.23 µM).

`COC(=O)c1ccsc1NC(=O)C1CCCN1` (configuration not stated) was tested, and the MIC50 [12] was 0.8 µg/mL (≈ 3.15 µM).

For `OCC1CCCN1CC1CCN(CC23CC4CC(CC(C4)C2)C3)CC1` (configuration not stated), the MIC90 [4] was > 10 µg/mL.

Compound `CCOC(=O)NC(=O)c1ccsc1NC(=O)c1nc2cccnc2s1` has an IC50 [9] of 130 nM.

In the case of `COc1c(N2CC3(CC3)[C@@](C)(N)C2)c(F)cc2c(=O)c(C(=O)O)cn(C3C[C@H]3F)c12` (some centres not stated), the MIC90 [13] is reported as 0.06 µg/mL (≈ 0.143 µM).

In the case of `CN[C@@H]1[C@H](O)[C@H](NC)[C@H]2O[C@@]3(O)[C@H](NC(=O)Cc4ccc(Cl)cn4)C[C@@H](C)C[C@H]3O[C@@H]2[C@H]1O`, the MIC50 [14] is reported as 1.6 µg/mL (≈ 3.3 µM).

In the case of `OC1CCN(CC2CCC(CNCc3ccccc3)CC2)CC1` (configuration not stated), the MIC90 [4] is reported as > 12 µg/mL.

`O=C(OCc1ccccc1)c1ccsc1NC(=O)C1CCCN1` (configuration not stated) gave an MIC50 [12] of 1.3 µg/mL (≈ 3.93 µM).

For `CN[C@@H]1[C@H](O)[C@H](NC)[C@H]2O[C@@]3(O)[C@H](NC(=O)Cc4ccc(F)cn4)C[C@@H](C)C[C@H]3O[C@@H]2[C@H]1O`, the MIC50 [14] was 0.8 µg/mL (≈ 1.71 µM).

`OC1CCN(C2CCN(Cc3ccccc3)CC2)CC1` was tested, and the MIC90 [4] was > 10 µg/mL.

`OC1CCN(CC2CCN(Cc3ccccc3)CC2)CC1` gave an MIC90 [4] of 6.2 µg/mL (≈ 21.5 µM).

`CCCCCCCCCC(=O)C[C@@H]1[C@H](OC)C([C@@H](O[C@H]2OC(C(=O)N[C@H]3CCC[C@@H](C)NC3=O)=C[C@H](O)[C@@H]2O)C(N)=O)O[C@H]1n1ccc(=O)[nH]c1=O` (some centres not stated) showed an MIC50 [8] of 1 µg/mL (≈ 1.36 µM).

In the case of `O=C(Oc1ccccc1)c1ccsc1NC(=O)C1CCCN1` (configuration not stated), the MIC50 [12] is reported as 2.4 µg/mL (≈ 7.59 µM).

Compound `OC1CCN(CC2CCN(CC34CC5CC(CC(C5)C3)C4)CC2)CC1` has an MIC90 [4] of 4 µg/mL (≈ 11.5 µM).

`COc1nc2ccc(Br)cc2cc1[C@@H](c1ccccc1)[C@@](O)(CCN(C)C)c1cccc2ccccc12` [BEDAQUILINE] showed an MIC50 [15] of 0.01 µg/mL (≈ 0.018 µM) and an MIC50 [16] of 0.01 µg/mL (≈ 0.018 µM).

Work on `C[C@]1(COc2ccc(N3CCC(Oc4ccc(OC(F)(F)F)cc4)CC3)cc2)Cn2cc([N+](=O)[O-])nc2O1` [DELAMANID] yielded an MIC50 [3] of 0.006 µg/mL (≈ 0.0112 µM).

Compound `CN1CCN(c2ccc(N3C[C@H](CO)OC3=O)cc2F)C=N1` [DELPAZOLID] has an MIC50 [17] of 0.5 µg/mL and an MIC50 [18] of 0.5 µg/mL (≈ 1.62 µM).

`CC(=O)NC[C@H]1CN(c2ccc(N3CCOCC3)c(F)c2)C(=O)O1` [LINEZOLID] showed an MIC50 [19] of 0.3 µg/mL (≈ 0.889 µM) and an MIC50 [17] of 0.3 µg/mL.

In the case of `O=[N+]([O-])c1cn2c(n1)OC[C@@H](OCc1ccc(OC(F)(F)F)cc1)C2` [PRETOMANID], the MIC50 [3] is reported as 0.015 µg/mL (≈ 0.0418 µM).

For `O=C1CCc2c(OC[C@]3(O)CCN(c4c(F)cc(Cl)cc4F)C[C@H]3O)ccc(F)c2N1` [QUABODEPISTAT], the MIC50 [14] was 0.00024 µg/mL (≈ 0.000525 µM).

Work on `CC(C)=CCC/C(C)=C/CNCCNC1C2CC3CC(C2)CC1C3` (configuration not stated) [SQ109] yielded an MIC50 [14] of 0.12 µg/mL (≈ 0.363 µM).

With `CC(=O)NC[C@H]1CN(c2ccc(N3CCSCC3)c(F)c2)C(=O)O1` [SUTEZOLID] the MIC50 [19] was 0.03 µg/mL (≈ 0.0849 µM) and the MIC50 [17] was 0.03 µg/mL.

`COc1ncnc(Cn2cc(C(=O)NCCO)c3ncc(C)cc32)c1C` [TBA-7371] showed an MIC50 [8] of 0.28 µg/mL (≈ 0.788 µM).

For `COc1cc([C@](O)(CCN(C)C)[C@@H](c2cc3cc(Br)ccc3nc2OC)c2cccc(OC)c2F)cc(OC)n1` [TBAJ-587], the “log(activity)” value [10] was 4.5, the MIC50 [20] was < 0.02 µg/mL and the MIC50 [16] was 0.006 µg/mL (≈ 0.00976 µM).

In the case of `COc1cc([C@](O)(CCN(C)C)[C@@H](c2cc3cc(Br)ccc3nc2OC)c2cc(OC)nc(OC)c2OC)cc(OC)n1` [TBAJ-876], the MIC50 [16] is reported as 5 µg/mL (≈ 7.6 µM).

`CCc1nc2ccc(Cl)cn2c1C(=O)NCc1ccc(N2CCC(c3ccc(OC(F)(F)F)cc3)CC2)cc1` [TELACEBEC] showed an MIC90 [21] of 0.0024 µg/mL (≈ 0.00431 µM).
